We go through 21 molecules from patent US20260085053A1, “BENZOFURAN DERIVATIVES AS SIK INHIBITORS AND THE USE THEREOF” (BEONE MEDICINES I GMBH, priority 2023, published 2026).

Experiment [1] concerns the target T1, SIK2 kinase (full length, Thermo Fisher) (Homo sapiens, UniProt Q9H0K1).
T1 construct: SIK2 kinase (full length, Thermo Fisher); purchased Thermo Fisher
The experiment is described as follows: Biochemical activities determination for SIK2 protein (TR-FRET). The following applies: 80 uM ATP, 0.5 μM substrate. The method, boiled down: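 Full-length SIK2 preincubated 60 min with 0–10 μM compound, then reacted 180 min at room temperature with 80 uM ATP and 0.5 μM biotinylated substrate (pH 7.5 Tris/MgCl2 buffer). Phosphorylation detected by TR-FRET (665/620 nm ratio, cryptate antibody/streptavidin-XL665) after overnight incubation; IC50 from four-parameter logistic fit.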
(In TR-FRET formats the signal depends on donor and acceptor labels being close together.)

Experiment [2] addresses T2, SIK3 kinase (aa59-365, Thermo Fisher) (Homo sapiens, UniProt Q9Y2K2).
T2 construct: SIK3 kinase (aa59-365, Thermo Fisher); purchased Thermo Fisher
In words: Biochemical activities determination for SIK3 protein (TR-FRET). The following applies: 125 uM ATP, 0.5 μM STK1 substrate. The procedure, abridged: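 SIK3 (aa59-365) was preincubated with compound (0-10 μM) for 60 min at room temperature in Tris buffer pH 7.5. The reaction was then started with 125 uM ATP and 0.5 μM STK1 substrate and run 180 min at room temperature. Phospho-substrate was detected by HTRF (665/620 nm ratio), and IC50 came from a four-parameter logistic fit.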

Experiment [3] concerns the target T3, SIK1 kinase (aa1-303, Thermo Fisher) (Homo sapiens, UniProt P57059).
T3 construct: SIK1 kinase (aa1-303, Thermo Fisher); purchased Thermo Fisher
The experiment is described as follows: Biochemical activities determination for SIK1 protein (TR-FRET). The following applies: 110 uM ATP, 0.5 μM STK1 substrate. The method, boiled down:
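TR-FRET kinase assay with SIK1 (aa1-303), 110 uM ATP, 0.5 μM STK1 substrate and 0-10 μM compound in Tris pH 7.5 with MgCl2, EGTA, DTT, Triton X-100. Enzyme preincubated with compound 60 min, reaction 180 min at room temperature; 665/620 nm ratio after overnight detection; IC50 from four-parameter logistic fit.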

Structures are written as SMILES.

T2 sequence (Q9Y2K2 59-365): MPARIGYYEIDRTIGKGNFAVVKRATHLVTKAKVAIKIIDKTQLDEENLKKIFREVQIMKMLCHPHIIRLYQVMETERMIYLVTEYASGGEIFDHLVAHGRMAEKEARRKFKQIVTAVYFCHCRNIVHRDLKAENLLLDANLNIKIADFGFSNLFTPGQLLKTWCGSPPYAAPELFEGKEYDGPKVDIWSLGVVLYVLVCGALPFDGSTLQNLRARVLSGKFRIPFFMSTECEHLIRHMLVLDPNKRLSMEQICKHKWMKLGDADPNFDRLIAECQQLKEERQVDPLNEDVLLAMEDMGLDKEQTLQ
T3 sequence (P57059 1-303): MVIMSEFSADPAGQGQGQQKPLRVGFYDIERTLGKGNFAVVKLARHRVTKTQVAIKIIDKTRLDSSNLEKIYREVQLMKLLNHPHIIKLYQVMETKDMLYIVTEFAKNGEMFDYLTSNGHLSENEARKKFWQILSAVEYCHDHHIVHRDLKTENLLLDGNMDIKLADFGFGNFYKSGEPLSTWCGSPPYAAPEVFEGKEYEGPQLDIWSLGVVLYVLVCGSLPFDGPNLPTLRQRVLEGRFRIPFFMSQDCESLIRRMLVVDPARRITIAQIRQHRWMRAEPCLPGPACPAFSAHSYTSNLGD
T1 sequence (Q9H0K1 whole entry): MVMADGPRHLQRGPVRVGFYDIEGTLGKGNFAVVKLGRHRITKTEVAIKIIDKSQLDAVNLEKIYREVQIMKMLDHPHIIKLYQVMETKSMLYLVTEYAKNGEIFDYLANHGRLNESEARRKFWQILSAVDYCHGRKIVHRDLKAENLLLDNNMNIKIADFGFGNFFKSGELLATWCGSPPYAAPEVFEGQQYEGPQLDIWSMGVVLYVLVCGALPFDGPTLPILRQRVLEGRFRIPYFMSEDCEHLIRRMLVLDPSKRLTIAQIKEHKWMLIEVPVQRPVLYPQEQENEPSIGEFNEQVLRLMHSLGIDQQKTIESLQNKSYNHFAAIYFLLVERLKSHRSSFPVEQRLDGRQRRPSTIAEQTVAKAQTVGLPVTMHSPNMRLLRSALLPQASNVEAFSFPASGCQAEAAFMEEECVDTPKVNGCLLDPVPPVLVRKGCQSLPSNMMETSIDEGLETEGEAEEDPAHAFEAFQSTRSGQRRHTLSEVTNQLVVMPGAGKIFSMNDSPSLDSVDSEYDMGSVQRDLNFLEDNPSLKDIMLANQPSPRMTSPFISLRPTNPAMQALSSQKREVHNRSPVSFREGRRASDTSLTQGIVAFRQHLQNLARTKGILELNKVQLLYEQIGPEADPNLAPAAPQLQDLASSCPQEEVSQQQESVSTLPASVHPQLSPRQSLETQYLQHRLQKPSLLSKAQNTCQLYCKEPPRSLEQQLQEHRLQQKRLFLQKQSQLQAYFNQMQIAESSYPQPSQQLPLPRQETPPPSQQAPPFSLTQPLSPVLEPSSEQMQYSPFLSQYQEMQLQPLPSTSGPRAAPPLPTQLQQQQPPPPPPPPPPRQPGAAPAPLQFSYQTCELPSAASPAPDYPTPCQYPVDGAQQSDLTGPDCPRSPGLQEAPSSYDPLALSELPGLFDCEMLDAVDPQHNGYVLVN

Turning to `COc1cc(-c2coc3cc(OCCN4CCCC[C@@H]4C)ccc23)cc(OC(F)F)c1C(=O)N[C@@H]1C[C@@H]1F` [Compound 91, 2-(difluoromethoxy)-N-((1R,2S)-2-fluorocyclopropyl)-6-methoxy-4-(6-(2-((S)-2-methylpiperidin-1-yl)ethoxy)benzofuran-3-yl)benzamide], the figures for the IC50 in experiment [1], in experiment [2] and in experiment [3] were 31 nM, 74 nM and 2500 nM, respectively.
As to `COc1cc(-c2coc3cc(OCCN4CCCC[C@H]4C)ccc23)cc(OC(F)F)c1C(=O)N[C@@H]1C[C@@H]1F` [Compound 92, 2-(difluoromethoxy)-N-((1R,2S)-2-fluorocyclopropyl)-6-methoxy-4-(6-(2-((R)-2-methylpiperidin-1-yl)ethoxy)benzofuran-3-yl)benzamide], the IC50 in experiment [1] came to 32 nM; in experiment [2], 104 nM; in experiment [3] it was 3010 nM.
For `COc1cc(-c2coc3cc(OCCN4CCC(C)(C)C4)ccc23)cc(OC(F)F)c1C(=O)N[C@@H]1C[C@@H]1F` [Compound 93, 2-(difluoromethoxy)-4-(6-(2-(3,3-dimethylpyrrolidin-1-yl)ethoxy)benzofuran-3-yl)-N-((1R,2S)-2-fluorocyclopropyl)-6-methoxybenzamide] the same measures were 30 nM, 60 nM and 2530 nM.
Turning to `COc1cc(-c2coc3cc(OCCN4CCC(C)CC4)ccc23)cc(OC(F)F)c1C(=O)N[C@@H]1C[C@@H]1F` [Compound 94, 2-(difluoromethoxy)-N-((1R,2S)-2-fluorocyclopropyl)-6-methoxy-4-(6-(2-(4-methylpiperidin-1-yl)ethoxy)benzofuran-3-yl)benzamide], the IC50 was determined as 33 nM in experiment [1], 74 nM in experiment [2] and 2870 nM in experiment [3].
`COc1cc(-c2coc3cc(OCCN4CCCC4C(F)(F)F)ccc23)cc(OC(F)F)c1C(=O)N[C@@H]1C[C@@H]1F` (stereo partly drawn) [Compound 95, 2-(difluoromethoxy)-N-((1R,2S)-2-fluorocyclopropyl)-6-methoxy-4-(6-(2-(2-(trifluoromethyl)pyrrolidin-1-yl)ethoxy)benzofuran-3-yl)benzamide]: the half-maximal inhibitory concentration (IC50) in experiment [1] is 507 nM; in experiment [2] it was 117 nM; in experiment [3] it was over 10000 nM.
In the case of `CC[C@H]1CCN(CCOc2ccc3c(-c4cc(OC)c(C(=O)N[C@@H]5C[C@@H]5F)c(OC(F)F)c4)coc3c2)C1` [Compound 96, 2-(difluoromethoxy)-4-(6-(2-((S)-3-ethylpyrrolidin-1-yl)ethoxy)benzofuran-3-yl)-N-((1R,2S)-2-fluorocyclopropyl)-6-methoxybenzamide], the values for the IC50 in experiment [1], in experiment [2] and in experiment [3] were 22 nM, 43 nM and 2040 nM, respectively.
Take `COc1cc(-c2coc3cc(OCCN4CCCC4)ccc23)cc(OC(F)F)c1C(=O)N[C@@H]1C[C@H]1F` [Compound 97, 2-(difluoromethoxy)-N-((1R,2R)-2-fluorocyclopropyl)-6-methoxy-4-(6-(2-(pyrrolidin-1-yl)ethoxy)benzofuran-3-yl)benzamide]: the IC50 in experiment [1] was determined as 85 nM; in experiment [2] it was 289 nM; in experiment [3], 8350 nM.
For `COc1cc(-c2coc3cc(OCCN4CCCC4)ccc23)cc(OC(F)F)c1C(=O)N[C@H]1C[C@H]1F` [Compound 98, 2-(difluoromethoxy)-N-((1S,2R)-2-fluorocyclopropyl)-6-methoxy-4-(6-(2-(pyrrolidin-1-yl)ethoxy)benzofuran-3-yl)benzamide] the same measures were 128 nM, 525 nM and over 10000 nM.
For `COc1cc(-c2coc3cc(OCCN4CCCC4)ccc23)cc(OC(F)F)c1C(=O)N[C@H]1C[C@@H]1F` [Compound 99, 2-(difluoromethoxy)-N-((1S,2S)-2-fluorocyclopropyl)-6-methoxy-4-(6-(2-(pyrrolidin-1-yl)ethoxy)benzofuran-3-yl)benzamide] the same measures were 269 nM, 759 nM and over 10000 nM.
For `COc1cc(-c2coc3cc(OCCN4CCCC4)ccc23)cc(OC(F)F)c1C(=O)NC1CC1(F)F` (stereo not drawn) [Compound 100, N-(2,2-difluorocyclopropyl)-2-(difluoromethoxy)-6-methoxy-4-(6-(2-(pyrrolidin-1-yl)ethoxy)benzofuran-3-yl)benzamide] the same measures were 31 nM, 80 nM and 3590 nM.
Take `O=C(NC1CC1)c1c(OC(F)F)cc(-c2coc3cc(OCCN4CCCC4)ccc23)cc1O[C@H]1CC[C@H](O)CC1` [Compound 101, N-cyclopropyl-2-(difluoromethoxy)-6-(((1r,4r)-4-hydroxycyclohexyl)oxy)-4-(6-(2-(pyrrolidin-1-yl)ethoxy)benzofuran-3-yl)benzamide]: the IC50 in experiment [1] is 8970 nM; in experiment [2], over 10000 nM; in experiment [3], over 10000 nM.
Take `O=C(NC1CC1)c1c(OC(F)F)cc(-c2coc3cc(OCCN4CCCC4)ccc23)cc1O[C@H]1CC[C@@H](O)CC1` [Compound 102, N-cyclopropyl-2-(difluoromethoxy)-6-(((1s,4s)-4-hydroxycyclohexyl)oxy)-4-(6-(2-(pyrrolidin-1-yl)ethoxy)benzofuran-3-yl)benzamide]: the IC50 in experiment [1] is 2480 nM; in experiment [2] it was over 10000 nM; in experiment [3], over 10000 nM.
On to `O=C(NC1CC1)c1c(OCCO)cc(-c2coc3cc(OCCN4CCCC4)ccc23)cc1OC(F)F` [Compound 103, N-cyclopropyl-2-(difluoromethoxy)-6-(2-hydroxyethoxy)-4-(6-(2-(pyrrolidin-1-yl)ethoxy)benzofuran-3-yl)benzamide], for which the IC50 in experiment [1] was 114 nM; in experiment [2], 410 nM; in experiment [3], 9500 nM.
For `O=C(NC1CC1)c1c(NCCO)cc(-c2coc3cc(OCCN4CCCC4)ccc23)cc1OC(F)F` [Compound 104, N-cyclopropyl-2-(difluoromethoxy)-6-((2-hydroxyethyl)amino)-4-(6-(2-(pyrrolidin-1-yl)ethoxy)benzofuran-3-yl)benzamide] the same measures were 52 nM, 211 nM and 4580 nM.
Consider `O=C(NC1CC1)c1c(F)cc(-c2coc3cc(OCCN4CCCC4)ccc23)cc1OC(F)F` [Compound 105, N-cyclopropyl-2-(difluoromethoxy)-6-fluoro-4-(6-(2-(pyrrolidin-1-yl)ethoxy)benzofuran-3-yl)benzamide], for which the IC50 is 398 nM in experiment [1], 1770 nM in experiment [2] and over 10000 nM in experiment [3].
For `CN1CC(Oc2cc(-c3coc4cc(OCCN5CCCC5)ccc34)cc(OC(F)F)c2C(=O)NC2CC2)C1` [Compound 106, N-cyclopropyl-2-(difluoromethoxy)-6-((1-methylazetidin-3-yl)oxy)-4-(6-(2-(pyrrolidin-1-yl)ethoxy)benzofuran-3-yl)benzamide], in that order: 2960 nM, over 10000 nM and over 10000 nM.
For `CN1CCC[C@@H]1COc1cc(-c2coc3cc(OCCN4CCCC4)ccc23)cc(OC(F)F)c1C(=O)NC1CC1` [Compound 107, (R)—N-cyclopropyl-2-(difluoromethoxy)-6-((1-methylpyrrolidin-2-yl)methoxy)-4-(6-(2-(pyrrolidin-1-yl)ethoxy)benzofuran-3-yl)benzamide] the same measures were 5610 nM, over 10000 nM and over 10000 nM.
For `CC(C)(O)COc1cc(-c2coc3cc(OCCN4CCCC4)ccc23)cc(OC(F)F)c1C(=O)NC1CC1` [Compound 108, N-cyclopropyl-2-(difluoromethoxy)-6-(2-hydroxy-2-methylpropoxy)-4-(6-(2-(pyrrolidin-1-yl)ethoxy)benzofuran-3-yl)benzamide] the same measures were 2780 nM, over 10000 nM and over 10000 nM.
Take `NC1CC(Oc2cc(-c3coc4cc(OCCN5CCCC5)ccc34)cc(OC(F)F)c2C(=O)NC2CC2)C1` (stereo not drawn) [Compound 109, 2-(3-aminocyclobutoxy)-N-cyclopropyl-6-(difluoromethoxy)-4-(6-(2-(pyrrolidin-1-yl)ethoxy)benzofuran-3-yl)benzamide]: the figures for the IC50 in experiment [1], in experiment [2] and in experiment [3] were 329 nM, 2520 nM and over 10000 nM, respectively.
For `CN1CC[C@@H](Oc2cc(-c3coc4cc(OCCN5CCCC5)ccc34)cc(OC(F)F)c2C(=O)NC2CC2)C1` [Compound 110, (R)—N-cyclopropyl-2-(difluoromethoxy)-6-((1-methylpyrrolidin-3-yl)oxy)-4-(6-(2-(pyrrolidin-1-yl)ethoxy)benzofuran-3-yl)benzamide], in that order: 3850 nM, over 10000 nM and over 10000 nM.
As for `CN1CC[C@H](Oc2cc(-c3coc4cc(OCCN5CCCC5)ccc34)cc(OC(F)F)c2C(=O)NC2CC2)C1` [Compound 111, (S)—N-cyclopropyl-2-(difluoromethoxy)-6-((1-methylpyrrolidin-3-yl)oxy)-4-(6-(2-(pyrrolidin-1-yl)ethoxy)benzofuran-3-yl)benzamide], the IC50 is 1190 nM in experiment [1], 5700 nM in experiment [2] and over 10000 nM in experiment [3].

As usually defined, the IC50 is the concentration at which inhibition is half-maximal.
